Measurements published in patent US11311522B1 (Cavion, Inc., priority 2018, dated 2022).
Like-named read-outs stand apart in the source and are kept apart here.

What was measured:
[1] = T-CALM: plasma concentrations by 5-in-1 LC/MS/MS; format: in vivo, human; details: for Plasma concentration, mean: trough; for concentration at 4 h: human, plasma, oral, 4 hours post-dose
Experimental: Additionally, at Visit 4, a post-dose sample will be collected as close to 4 hours post-dose as possible, but within the window of 4-6 hours post-dose (i.e., a total of two PK samples are collected at Visit 4.)
Assay performances were satisfactory and met acceptance criteria for system performance suitability, quantitation range, calibration linearity, assay accuracy and precision, and assay recovery.

[2] = Phase 1 single-dose pharmacokinetics (PN001, PN002/Part I, PN003, PN005); format: in vivo, human; details: 8 mg CX-8998
[3] = tested on: T1, CYP1A2, CYP3A4, CYP2C8, CYP2C9, CYP2C19, CYP2D6; test: CYP inhibition in human liver microsomes; format: in vitro ADME; details: human liver microsomes
T1 construct: IC50, CYP1A2, CYP3A4, CYP2C8, CYP2C9, CYP2C19, CYP2D6; other: human liver microsomes

[4] = tested on: CYP1A2, CYP3A4, CYP2C8, CYP2C9, CYP2C19, CYP2D6, CYP2B6; test: CYP inhibition in human liver microsomes; format: in vitro ADME
[5] = target: T2, CYP2C9 (Homo sapiens, UniProt P11712); test: In vitro metabolism (liver microsomes, hepatocytes, recombinant CYPs, anti-CYP antibodies); format: in vitro ADME; details: recombinant CYP2C9
T2 construct: host or cells: pooled liver microsomes, hepatocytes and recombinant CYP enzymes
Source text: (§1) Glucuronide conjugates of the oxygenated metabolites are detected in human, monkey, and dog hepatocyte preparations. […] However, the abundance of CYP3A5, CYP2C19, and CYP2D6 in human liver microsomes is low (2%-5%) relative to the primary contributors, CYP3A4 (˜30%) and CYP2C9 (˜20%). […] Information on reproductive and developmental toxicology was obtained in a 28-day pivotal female fertility study in rats and in preliminary embryo-fetal development studies in rats and rabbits.

[6] = Brain penetration in male rats; format: in vivo; details: rat, 25 mg/kg
[7] = in vivo; details: female, rat, po, 10 mg/kg/day
[8] = Phase 1 multiple-dose pharmacokinetics (PN002/Part II); details: for half-life / AUC / Cmax: human, plasma
[9] = Single-dose toxicokinetic study in dogs; format: in vivo; details: dog, plasma, po, 800 mg/kg
[10] = In vitro plasma protein binding, human; format: in vitro ADME
[11] = tested on: CYP2B6; test: CYP2B6 mRNA induction in human hepatocytes; format: in vitro ADME
Source text: as §1

[12] = in vivo; details: Beagle, dog, po, 300 mg/kg
[13] = Crossover bioavailability study IR vs MR1 vs MR2 capsules: PK; set-up: AUC72hr: unit not given beside the values; details: for AUC72hr Ratio / Cmax Ratio: metabolite to CX-8998; for AUC72hr / Cmax / Tmax: plasma
[14] = Off-target panel of enzyme and receptor binding sites, ion channels, transporters; details: 10 μM, 87 targets
[15] = brain and plasma, oral, read-out: Brain-to-plasma ratio
[16] = M01, Day 7, CX-8998 2 mg once daily
[17] = M01, Day 7, CX-8998 18 mg once daily
[18] = human plasma, read-out: In vitro plasma protein binding (converted)
[19] = humans, read-out: free fraction
[20] = single 8 mg dose of MR1 CX-8998
[21] = single 8 mg dose of MR2 CX-8998
[22] = following a single 8 mg dose of MR1 CX-8998
[23] = following a single 8 mg dose of MR2 CX-8998

T2 sequence (P11712 whole entry): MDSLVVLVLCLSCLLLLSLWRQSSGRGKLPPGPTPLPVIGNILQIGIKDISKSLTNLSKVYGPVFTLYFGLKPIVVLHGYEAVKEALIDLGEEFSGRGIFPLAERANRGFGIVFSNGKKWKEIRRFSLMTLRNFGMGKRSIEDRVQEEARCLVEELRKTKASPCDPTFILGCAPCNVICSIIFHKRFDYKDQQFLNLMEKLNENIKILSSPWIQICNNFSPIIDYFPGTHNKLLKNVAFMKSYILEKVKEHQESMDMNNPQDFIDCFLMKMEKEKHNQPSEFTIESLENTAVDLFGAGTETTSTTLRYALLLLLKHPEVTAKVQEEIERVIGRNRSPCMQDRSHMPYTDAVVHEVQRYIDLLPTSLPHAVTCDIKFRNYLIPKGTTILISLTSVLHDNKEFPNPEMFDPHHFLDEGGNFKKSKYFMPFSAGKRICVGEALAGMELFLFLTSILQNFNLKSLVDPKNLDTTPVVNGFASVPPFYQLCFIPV

SMILES: C=C(C)c1ccc(CC(=O)N[C@H](C)c2ccc(OCC(F)(F)F)cn2)cc1 [M01]
- Plasma concentration, mean ([1]; Visit 2 (Day 8), 4 mg BID): 398 nM
- Plasma concentration, mean ([1]; Visit 3 (Day 15), 8 mg BID): 812 nM
- Plasma concentration, mean ([1]; Visit 4 (Day 28), 10 mg BID): 1023 nM
- concentration at 4 h ([1]; Visit 4 (Day 28), 10 mg BID): 976 nM
- AUCinf, middle-aged and elderly female vs male subjects [2]: 2% lower
- Cmax, middle-aged and elderly female vs male subjects [2]: 12% lower
- IC50 [3]: > 20 µM
- Time-dependent inhibition of CYP3A4 or CYP2B6 [4]: insignificant
- KM for CYP2C9 reactions (formation) [5]: ~3 µM
- Kp at 2 h [6, 15]: 0.27
- Kp at 2 h ([6]; brain, po, read-out: Brain: Plasma Ratio): 0.27
- AUC [7]: 8.11 µM·h
- Cmax [7]: 2.66 µM
- AUC Ratio, metabolite to parent [8, 16]: 1.12
- Cmax Ratio, metabolite to parent [8, 16]: 0.36
- Cmax Ratio, metabolite to parent ([8]; M01, Day 7, CX-8998 4 mg once daily): 0.36
- AUC Ratio, metabolite to parent ([8]; M01, Day 7, CX-8998 12 mg once daily): 1.15
- AUC Ratio, metabolite to parent [8, 17]: 1.34
- Cmax Ratio, metabolite to parent [8, 17]: 0.57
- Relative potency (CX-8998 = 1.00) ([8]; based on potency, free fraction, maximum Cmax ratios): 0.27
- half-life ([8]; 2 mg): 1550 min
- AUC ([8]; 2 mg, AUC24, M01, Day 7, CX-8998 2 mg once daily): 1.52 µM·h
- Cmax ([8]; 2 mg, M01, Day 7, CX-8998 2 mg once daily): 76 nM
- AUC ([8]; 4 mg, AUC24, M01, Day 7, CX-8998 4 mg once daily): 2.83 µM·h
- Cmax ([8]; 4 mg, M01, Day 7, CX-8998 4 mg once daily): 136 nM
- half-life ([8]; 12 mg): 1360 min
- half-life ([8]; 18 mg): 1140 min
- AUC ([8]; 18 mg, AUC24, M01, Day 7, CX-8998 18 mg once daily): 18.3 µM·h
- Cmax ([8]; 18 mg, M01, Day 7, CX-8998 18 mg once daily): 865 nM
- half-life ([8]; male, oral): 1140 to 1550 min
- Tmax ([9]; female): 8 h
- Tmax ([9]; male): 8 h
- fraction unbound ([10]; human plasma, read-out: Human-free fraction): < 0.001
- fraction unbound [10, 18]: < 0.001
- fraction unbound [10, 19]: < 0.001
- CYP2B6 induction [11]: mild to moderate inducers
- Kp at 24 h ([12]; female, CSF): 0.112
- concentration at 24 h ([12]; female, CSF): 112 nM
- Kp at 24 h ([12]; female, brain (frontal cortex)): 0.696
- concentration at 24 h ([12]; female, brain (frontal cortex)): 696 nM
- Kp at 24 h ([12]; female, brain (thalamus)): 0.772
- concentration at 24 h ([12]; female, brain (thalamus)): 772 nM
- Kp at 24 h ([12]; male, CSF): 0.149
- concentration at 24 h ([12]; male, CSF): 149 nM
- Kp at 24 h ([12]; male, brain (frontal cortex)): 0.19
- concentration at 24 h ([12]; male, brain (frontal cortex)): 190 nM
- Kp at 24 h ([12]; male, brain (thalamus)): 0.208
- concentration at 24 h ([12]; male, brain (thalamus)): 208 nM
- AUC72hr Ratio ([13]; single 8 mg dose of IR CX-8998): 0.92
- Cmax Ratio ([13]; single 8 mg dose of IR CX-8998): 0.14
- AUC72hr Ratio [13, 20]: 0.95
- Cmax Ratio [13, 20]: 0.27
- AUC72hr Ratio [13, 21]: 0.90
- Cmax Ratio [13, 21]: 0.35
- AUC72hr [13, 22]: 7118
- Cmax [13, 22]: 121 nM
- Tmax [13, 22]: 26 h
- AUC72hr [13, 23]: 6395
- Cmax [13, 23]: 113 nM
- Tmax [13, 23]: 39 h

SMILES: C[C@@H](NC(=O)Cc1ccc(C(C)(C)O)cc1)c1ccc(OCC(F)(F)F)cn1 [M02]
- Plasma concentration, mean ([1]; Visit 2 (Day 8), 4 mg BID): 168 nM
- Plasma concentration, mean ([1]; Visit 3 (Day 15), 8 mg BID): 325 nM
- Plasma concentration, mean ([1]; Visit 4 (Day 28), 10 mg BID): 406 nM
- concentration at 4 h ([1]; Visit 4 (Day 28), 10 mg BID): 438 nM
- AUCinf, middle-aged and elderly female vs male subjects [2]: 11% lower
- Cmax, middle-aged and elderly female vs male subjects [2]: 2% higher
- IC50 [3]: > 20 µM
- Time-dependent inhibition of CYP3A4 or CYP2B6 [4]: insignificant
- KM for CYP2C9 reactions (formation) [5]: ~3 µM
- Kp at 2 h [6, 15]: 0.32
- AUC [7]: 31.7 µM·h
- Cmax [7]: 5.4 µM
- half-life ([8]; 2 mg): 900 min
- AUC ([8]; 2 mg, AUC24, M02, Day 7, CX-8998 2 mg once daily): 0.93 µM·h
- Cmax ([8]; 2 mg, M02, Day 7, CX-8998 2 mg once daily): 54 nM
- half-life ([8]; 4 mg): 924 min
- AUC ([8]; 4 mg, AUC24, M02, Day 7, CX-8998 4 mg once daily): 1.86 µM·h
- Cmax ([8]; 4 mg, M02, Day 7, CX-8998 4 mg once daily): 106 nM
- half-life ([8]; 8 mg): 732 min
- AUC ([8]; 8 mg, AUC24, M02, Day 7, CX-8998 8 mg once daily): 3.54 µM·h
- Cmax ([8]; 8 mg, M02, Day 7, CX-8998 8 mg once daily): 219 nM
- half-life ([8]; 12 mg): 870 min
- AUC ([8]; 12 mg, AUC24, M02, Day 7, CX-8998 12 mg once daily): 4.55 µM·h
- Cmax ([8]; 12 mg, M02, Day 7, CX-8998 12 mg once daily): 287 nM
- half-life ([8]; 18 mg): 768 min
- AUC ([8]; 18 mg, AUC24, M02, Day 7, CX-8998 18 mg once daily): 7.97 µM·h
- Cmax ([8]; 18 mg, M02, Day 7, CX-8998 18 mg once daily): 481 nM
- half-life ([8]; male, oral): 732 to 924 min
- Off-target effects (≥50% inhibition or stimulation) [14]: No significant results
- Tmax ([9]; female): 8 h
- Tmax ([9]; male): 8 h
- fraction unbound [10, 18]: 0.14
- fraction unbound [10, 19]: 0.14
- CYP2B6 induction [11]: mild to moderate inducers
- Tmax ([13]; following a single 8 mg dose of IR CX-8998): 5 h
- AUC72hr [13, 22]: 3343
- Cmax [13, 22]: 94 nM
- Tmax [13, 22]: 11 h
- AUC72hr [13, 23]: 3142
- Cmax [13, 23]: 73 nM
- Tmax [13, 23]: 16 h
